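Exposure lasted 48 hours, with cells grown in 96-well plates and compounds tested at five concentrations. TGI marks complete inhibition of growth.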
Columns and labels:
Experiment in all cases: NCI-60 cell line screen, 48 h
[1] = system: BT-549 breast
[2] = system: 786-0 renal
[3] = system: MDA-MB-231 breast
[4] = system: SF-539 CNS
[5] = system: IGROV1 ovarian
[6] = system: SK-OV-3 ovarian
[7] = system: HOP-62 NSCLC
[8] = system: HOP-92 NSCLC
[9] = system: KM12 colon
[10] = system: ACHN renal
[11] = system: OVCAR-3 ovarian
[12] = system: OVCAR-5 ovarian
[13] = system: MOLT-4 leukemia
[14] = system: NCI-H23 lung
[15] = system: DU-145 prostate
[16] = system: K-562 leukemia
[17] = system: T-47D breast
[18] = system: NCI-H522 lung
[19] = system: CCRF-CEM leukemia
[20] = system: RPMI-8226 leukemia
[21] = system: CAKI-1 renal
[22] = system: NCI-H226 lung
[23] = system: HL-60(TB) leukemia
[24] = system: SW-620 colon
[25] = system: SN12C renal
[26] = system: MDA-MB-435
[27] = system: U251 CNS
[28] = system: COLO 205 colon
[29] = system: M14 melanoma
[30] = system: OVCAR-8 ovarian
[31] = system: SK-MEL-5 melanoma
[32] = system: TK-10 renal
[33] = system: HT29 colon
[34] = system: OVCAR-4 ovarian
[35] = system: A549 NSCLC
[36] = system: SF-295 CNS
[37] = system: HCT-116 colon
[38] = system: SNB-19 CNS
[39] = system: MDA-N
[40] = system: SF-268 CNS
[41] = system: PC-3 prostate
[42] = system: HCC-2998 colon
[43] = system: SK-MEL-28 melanoma
[44] = system: A498 renal
[45] = system: UACC-62 melanoma
[46] = system: RXF 393 renal
[47] = system: SR leukemia
[48] = system: MCF7 breast
[49] = system: SNB-75 CNS
[50] = system: UO-31 renal
[51] = system: EKVX NSCLC
[52] = system: NCI-H460 lung
[53] = system: MALME-3M melanoma
[54] = system: NCI/ADR-RES ovarian
[55] = system: LOX IMVI melanoma
[56] = system: SK-MEL-2 melanoma
[57] = system: HCT-15 colon
[58] = system: UACC-257 melanoma

Q: Which TGI [1] does the source give for `CC(C)(Br)C(Br)CCC1(C(Br)CBr)CO1` (stereo not given) here?
A: Its TGI is > 10 µM.

Q: And the TGI [2]?
A: The TGI was > 10 µM.

Q: What about the TGI [3] of the same compound?
A: The TGI was > 10 µM.

Q: What about the TGI [4] of the same compound?
A: Its TGI is > 10 µM.

Q: What about the TGI [5] of the same compound?
A: The TGI was > 10 µM.

Q: And the TGI [6]?
A: The TGI was > 10 µM.

Q: And the TGI [7]?
A: Its TGI is > 10 µM.

Q: What about the TGI [8] of the same compound?
A: The TGI was > 10 µM.

Q: And the TGI [9]?
A: The TGI was > 10 µM.

Q: What about the TGI [10] of the same compound?
A: Its TGI is > 10 µM.

Q: What about the TGI [11] of the same compound?
A: Its TGI is > 10 µM.

Q: And the TGI [12]?
A: The TGI was > 10 µM.

Q: And the TGI [13]?
A: The TGI was > 10 µM.

Q: And the TGI [14]?
A: Its TGI is > 10 µM.

Q: What about the TGI [15] of the same compound?
A: The TGI was > 10 µM.

Q: And the TGI [16]?
A: The TGI was > 10 µM.

Q: What about the TGI [17] of the same compound?
A: The TGI was > 10 µM.

Q: And the TGI [18]?
A: Its TGI is > 10 µM.

Q: And the TGI [19]?
A: The TGI was > 10 µM.

Q: And the TGI [20]?
A: The TGI was > 10 µM.

Q: And the TGI [21]?
A: The TGI was > 10 µM.

Q: And the TGI [22]?
A: Its TGI is > 10 µM.

Q: What about the TGI [23] of the same compound?
A: The TGI was > 10 µM.

Q: What about the TGI [24] of the same compound?
A: The TGI was > 10 µM.

Q: What about the TGI [25] of the same compound?
A: The TGI was > 10 µM.

Q: What about the TGI [26] of the same compound?
A: Its TGI is > 10 µM.

Q: And the TGI [27]?
A: Its TGI is > 10 µM.

Q: What about the TGI [28] of the same compound?
A: Its TGI is > 10 µM.

Q: What about the TGI [29] of the same compound?
A: The TGI was > 10 µM.

Q: What about the TGI [30] of the same compound?
A: Its TGI is > 10 µM.

Q: And the TGI [31]?
A: Its TGI is > 10 µM.

Q: What about the TGI [32] of the same compound?
A: The TGI was > 10 µM.

Q: What about the TGI [33] of the same compound?
A: Its TGI is > 10 µM.

Q: What about the TGI [34] of the same compound?
A: The TGI was > 10 µM.

Q: What about the TGI [35] of the same compound?
A: Its TGI is > 10 µM.

Q: And the TGI [36]?
A: Its TGI is > 10 µM.

Q: And the TGI [37]?
A: The TGI was > 10 µM.

Q: What about the TGI [38] of the same compound?
A: Its TGI is > 10 µM.

Q: What about the TGI [39] of the same compound?
A: Its TGI is > 10 µM.

Q: What about the TGI [40] of the same compound?
A: The TGI was > 10 µM.

Q: What about the TGI [41] of the same compound?
A: The TGI was > 10 µM.

Q: And the TGI [42]?
A: Its TGI is > 10 µM.

Q: What about the TGI [43] of the same compound?
A: The TGI was > 10 µM.

Q: What about the TGI [44] of the same compound?
A: The TGI was > 10 µM.

Q: And the TGI [45]?
A: Its TGI is > 10 µM.

Q: And the TGI [46]?
A: Its TGI is > 10 µM.

Q: What about the TGI [47] of the same compound?
A: The TGI was > 10 µM.

Q: And the TGI [48]?
A: Its TGI is > 10 µM.

Q: And the TGI [49]?
A: The TGI was > 10 µM.

Q: And the TGI [50]?
A: The TGI was > 10 µM.

Q: What about the TGI [51] of the same compound?
A: Its TGI is > 10 µM.

Q: `COC(=O)[C@]1(c2cc3ccccc3[nH]2)CC2CN(C(=O)OCc3ccccc3)C1C=C2OC` (stereo not given in full) was tested. Which TGI [1] did it give?
A: Its TGI is 82.3 µM.

Q: What about the TGI [2] of the same compound?
A: Its TGI is > 100 µM.

Q: What about the TGI [3] of the same compound?
A: Its TGI is 56.9 µM.

Q: What about the TGI [4] of the same compound?
A: The TGI was 55.2 µM.

Q: And the TGI [5]?
A: Its TGI is > 100 µM.

Q: And the TGI [6]?
A: The TGI was > 100 µM.

Q: And the TGI [7]?
A: The TGI was > 100 µM.

Q: What about the TGI [8] of the same compound?
A: The TGI was 80.6 µM.

Q: What about the TGI [9] of the same compound?
A: The TGI was > 100 µM.

Q: What about the TGI [10] of the same compound?
A: Its TGI is 74.3 µM.

Q: What about the TGI [11] of the same compound?
A: The TGI was 91.4 µM.

Q: And the TGI [12]?
A: Its TGI is 44.2 µM.

Q: And the TGI [13]?
A: The TGI was 64.4 µM.

Q: And the TGI [14]?
A: The TGI was > 100 µM.

Q: And the TGI [15]?
A: The TGI was > 100 µM.

Q: And the TGI [16]?
A: Its TGI is > 100 µM.

Q: And the TGI [17]?
A: The TGI was > 100 µM.

Q: And the TGI [18]?
A: The TGI was 91.3 µM.

Q: And the TGI [52]?
A: Its TGI is > 100 µM.

Q: What about the TGI [19] of the same compound?
A: The TGI was 69.3 µM.

Q: And the TGI [20]?
A: Its TGI is 72.1 µM.

Q: What about the TGI [21] of the same compound?
A: The TGI was > 100 µM.

Q: What about the TGI [22] of the same compound?
A: Its TGI is 55 µM.

Q: What about the TGI [23] of the same compound?
A: The TGI was 43.7 µM.

Q: What about the TGI [24] of the same compound?
A: Its TGI is > 100 µM.

Q: What about the TGI [25] of the same compound?
A: The TGI was > 100 µM.

Q: What about the TGI [26] of the same compound?
A: The TGI was 55.3 µM.

Q: What about the TGI [53] of the same compound?
A: Its TGI is 66.4 µM.

Q: What about the TGI [54] of the same compound?
A: The TGI was > 100 µM.

Q: And the TGI [27]?
A: Its TGI is > 100 µM.

Q: What about the TGI [28] of the same compound?
A: Its TGI is 38 µM.

Q: What about the TGI [29] of the same compound?
A: Its TGI is 47 µM.

Q: And the TGI [30]?
A: The TGI was > 100 µM.

Q: And the TGI [32]?
A: Its TGI is > 100 µM.

Q: What about the TGI [33] of the same compound?
A: Its TGI is 63.6 µM.

Q: And the TGI [34]?
A: The TGI was 98.8 µM.

Q: What about the TGI [35] of the same compound?
A: Its TGI is > 100 µM.

Q: What about the TGI [36] of the same compound?
A: Its TGI is > 100 µM.

Q: And the TGI [55]?
A: The TGI was > 100 µM.

Q: And the TGI [37]?
A: Its TGI is > 100 µM.

Q: And the TGI [38]?
A: The TGI was > 100 µM.

Q: What about the TGI [56] of the same compound?
A: Its TGI is 44 µM.

Q: What about the TGI [39] of the same compound?
A: Its TGI is > 100 µM.

Q: And the TGI [57]?
A: The TGI was > 100 µM.

Q: And the TGI [40]?
A: The TGI was > 100 µM.

Q: What about the TGI [41] of the same compound?
A: The TGI was > 100 µM.

Q: What about the TGI [42] of the same compound?
A: Its TGI is 46.8 µM.

Q: What about the TGI [43] of the same compound?
A: The TGI was > 100 µM.

Q: And the TGI [45]?
A: Its TGI is 36.7 µM.

Q: What about the TGI [46] of the same compound?
A: Its TGI is 57.6 µM.

Q: What about the TGI [58] of the same compound?
A: Its TGI is 49.9 µM.

Q: And the TGI [48]?
A: Its TGI is 58.5 µM.

Q: What about the TGI [49] of the same compound?
A: Its TGI is 71.2 µM.

Q: And the TGI [51]?
A: The TGI was > 100 µM.
